Several values for one entry are separate records, joined by “and”; a condition that tells them apart may be missing. Equal values may be shown once. Read-outs that look alike come from different tables or passages of the source.
Assays:
InhA^WT [1] = biological target: T1, InhA^WT (Mycobacterium tuberculosis, UniProt P9WGR1); assay type: biochemical
InhA = details: cited from earlier work
InhA^WT [2] = biological target: T1, InhA^WT; assay type: binding

T1 sequence (P9WGR1 whole entry, looked up): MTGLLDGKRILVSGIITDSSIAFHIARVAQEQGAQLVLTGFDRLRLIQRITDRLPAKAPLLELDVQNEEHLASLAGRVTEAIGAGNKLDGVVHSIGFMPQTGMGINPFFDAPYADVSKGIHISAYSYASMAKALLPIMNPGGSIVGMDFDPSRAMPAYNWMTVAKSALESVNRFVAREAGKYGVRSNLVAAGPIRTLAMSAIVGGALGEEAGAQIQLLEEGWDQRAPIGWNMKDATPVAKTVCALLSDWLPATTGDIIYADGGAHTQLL

SMILES	Ki^app/Ki*^app (InhA^WT [1])	k5 (InhA^WT [1]) [min⁻¹]	k6 (InhA^WT [1]) [min⁻¹]	tR (1/k6) (InhA^WT [1]) [min]	ΔΔG (InhA^WT [1])	Ki (InhA^WT [1]; read-out: Ki*^app)	Ki (InhA^WT [1]; read-out: Ki^app) [nM]	residence time (InhA) [min]	Ki (InhA; slow-onset, tight binding inhibitor) [nM]	tR (^32P- NAD) (InhA^WT [2])
CCCCCCc1ccc(Oc2ccccc2C)c(O)c1 [PT70, 2-(o-tolyoxy)-5-hexylphenol]	10.8	0.40 ± 0.01	0.025 ± 0.002	40 ± 2	1.41 and 1.41 kcal mol^−1	24 nM and 23.7 nM	256 ± 38	40	0.6	37 ± 2 min
Cc1ccccc1Oc1ccc(Cn2cc(-c3ccccc3)nn2)cc1O [PT163, 5-((4-phenyl-1H-1,2,3-triazol-1-yl)methyl)-2-(o-tolyloxy)phenol]	–	0.44 ± 0.06	0.011 ± 0.001	94 ± 3	2.26 kcal/mol	–	–	–	–	114 min and 114 ± 18 min

— article PMC4805124 (Biochemistry, 2015)
